From US20250263390A1, “NOVEL SUBSTITUTED 6,7-DIHYDRO-5H-BENZO[7]ANNULENE COMPOUNDS AND THEIR DERIVATIVES, PROCESSES FOR THEIR PREPARATION AND THERAPEUTIC USES THEREOF” (SANOFI, priority 2022, published 2025)

biological target: T1, ERα (Homo sapiens, UniProt P03372); test: Estrogen receptor degradation activity: breast cancer cell ERα in cell western assay; type: cell-based; settings: MCF7 cells, 4 hours, relative to fulvestrant 0.1 μM positive control
T1 construct: host or cells: MCF7
T1 sequence (P03372 1-595): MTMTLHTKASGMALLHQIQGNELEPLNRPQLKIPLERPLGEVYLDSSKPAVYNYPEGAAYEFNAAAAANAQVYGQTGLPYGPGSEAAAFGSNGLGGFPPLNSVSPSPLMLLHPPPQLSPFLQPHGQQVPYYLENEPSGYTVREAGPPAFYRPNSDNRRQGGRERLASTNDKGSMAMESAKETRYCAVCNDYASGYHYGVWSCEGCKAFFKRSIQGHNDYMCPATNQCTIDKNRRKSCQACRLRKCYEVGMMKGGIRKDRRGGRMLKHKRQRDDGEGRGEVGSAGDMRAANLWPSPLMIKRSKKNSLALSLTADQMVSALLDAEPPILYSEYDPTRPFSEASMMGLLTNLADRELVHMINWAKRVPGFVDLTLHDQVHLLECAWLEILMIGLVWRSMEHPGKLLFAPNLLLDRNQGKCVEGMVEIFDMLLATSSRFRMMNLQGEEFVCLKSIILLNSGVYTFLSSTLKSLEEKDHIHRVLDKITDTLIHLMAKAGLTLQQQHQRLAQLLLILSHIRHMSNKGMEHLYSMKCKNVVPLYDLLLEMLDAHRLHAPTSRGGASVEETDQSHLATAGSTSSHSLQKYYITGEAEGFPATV
In short: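 MCF7 cells in phenol red-free medium with 5% charcoal-stripped FBS, 4 h exposure to 9-point 1:5 dilutions (final 0.3–0.0000018 μM). ERα immunostained in fixed cells and normalised to DNA dye; % decrease scaled between DMSO and 0.1 μM fulvestrant, IC50 reported in nM.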

| Compound | % Degradation At 0.3 μM [%] |
| --- | --- |
| Cc1c(C2=C(c3ccc(CC4CN(CCCF)C4)cc3)c3ccc(C(=O)O)cc3CCC2)ccc(C(F)(F)F)c1F.Cl [Compound 64, 8-(3-fluoro-2-methyl-4-(trifluoromethyl)phenyl)-9-(4-((1-(3-fluoropropyl)azetidin-3-yl)methyl)phenyl)-6,7-dihydro-5H-benzo[7]annulene-3-carboxylic acid, hydrochloride] | 100 |
| COc1c(F)ccc(C)c1C1=C(c2ccc(CC3CN(CCCF)C3)cc2)c2ccc(C(=O)O)cc2CCC1 [Compound 65, 8-(3-fluoro-2-methoxy-6-methylphenyl)-9-(4-((1-(3-fluoropropyl)azetidin-3-yl)methyl)phenyl)-6,7-dihydro-5H-benzo[7]annulene-3-carboxylic acid] | 100 |
| Cc1cccc(C(F)F)c1C1=C(c2ccc(CC3CN(CCCF)C3)cc2)c2ccc(C(=O)O)cc2CCC1 [Compound 66, 8-(2-(difluoromethyl)-6-methylphenyl)-9-(4-((1-(3-fluoropropyl)azetidin-3-yl)methyl)phenyl)-6,7-dihydro-5H-benzo[7]annulene-3-carboxylic acid] | 90 |
| CCc1c(C2=C(c3ccc(CC4CN(CCCF)C4)cc3)c3ccc(C(=O)O)cc3CCC2)cccc1C(F)(F)F [Compound 67, 8-(2-ethyl-3-(trifluoromethyl)phenyl)-9-(4-((1-(3-fluoropropyl)azetidin-3-yl)methyl)phenyl)-6,7-dihydro-5H-benzo[7]annulene-3-carboxylic acid] | 93 |
| CCc1cccc(C2=C(c3ccc(CC4CN(CCCF)C4)cc3)c3ccc(C(=O)O)cc3CCC2)c1C(F)(F)F [Compound 68, 8-(3-ethyl-2-(trifluoromethyl)phenyl)-9-(4-((1-(3-fluoropropyl)azetidin-3-yl)methyl)phenyl)-6,7-dihydro-5H-benzo[7]annulene-3-carboxylic acid] | 92 |
| CCc1cc(C(F)(F)F)ccc1C1=C(c2ccc(CC3CN(CCCF)C3)cc2)c2ccc(C(=O)O)cc2CCC1 [Compound 69, 8-(2-ethyl-4-(trifluoromethyl)phenyl)-9-(4-((1-(3-fluoropropyl)azetidin-3-yl)methyl)phenyl)-6,7-dihydro-5H-benzo[7]annulene-3-carboxylic acid] | 91 |
| CCc1ccc(C2=C(c3ccc(CC4CN(CCCF)C4)cc3)c3ccc(C(=O)O)cc3CCC2)c(C(F)(F)F)c1 [Compound 70, 8-(4-ethyl-2-(trifluoromethyl)phenyl)-9-(4-((1-(3-fluoropropyl)azetidin-3-yl)methyl)phenyl)-6,7-dihydro-5H-benzo[7]annulene-3-carboxylic acid] | 92 |
| COc1ccc(C2=C(c3ccc(CC4CN(CCCF)C4)cc3)c3ccc(C(=O)O)cc3CCC2)cc1OC [Compound 71, 8-(3,4-dimethoxyphenyl)-9-(4-((1-(3-fluoropropyl)azetidin-3-yl)methyl)phenyl)-6,7-dihydro-5H-benzo[7]annulene-3-carboxylic acid] | 96 |
| COc1cc(C)cc(C)c1C1=C(c2ccc(CC3CN(CCCF)C3)cc2)c2ccc(C(=O)O)cc2CCC1 [Compound 72, 9-(4-((1-(3-fluoropropyl)azetidin-3-yl)methyl)phenyl)-8-(2-methoxy-4,6-dimethylphenyl)-6,7-dihydro-5H-benzo[7]annulene-3-carboxylic acid] | 91 |
| Cc1ccc(F)c(C)c1C1=C(c2ccc(CC3CN(CCCF)C3)cc2)c2ccc(C(=O)O)cc2CCC1 [Compound 73, 8-(3-fluoro-2,6-dimethylphenyl)-9-(4-((1-(3-fluoropropyl)azetidin-3-yl)methyl)phenyl)-6,7-dihydro-5H-benzo[7]annulene-3-carboxylic acid] | 84 |
